Laboratory results reported in ChEMBL document CHEMBL1201862, “PubChem BioAssay data set” (2004).
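Following 48 hours of exposure in 96-well plates, responses at five concentrations were used to interpolate endpoints linearly. GI50 is the concentration that inhibits growth by half.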 Active and inactive are the calls of the source. Rule as the data show it: active = GI50 up to about 1.1 µM and inactive = higher.

Columns and labels:
Experiment in all cases: NCI tumour cell line growth inhibition, 48 h
[1] = system: SN12C
[2] = system: HOP-62
[3] = system: CCRF-CEM
[4] = system: NCI-H522
[5] = system: NCI-H226
[6] = system: DMS-114
[7] = system: XF498
[8] = system: SW-620
[9] = system: SF-539
[10] = system: HCT-116
[11] = system: NCI-H23
[12] = system: KM12
[13] = system: M14
[14] = system: HCC 2998
[15] = system: HT-29
[16] = system: DLD-1
[17] = system: SF-295
[18] = system: OVCAR-3
[19] = system: UACC-62
[20] = system: LXFL 529
[21] = system: SK-OV-3
[22] = system: COLO 205
[23] = system: 786-0
[24] = system: SK-MEL-5
[25] = system: SNB-75
[26] = system: KM-20L2
[27] = system: K562
[28] = system: HL-60
[29] = system: U-251
[30] = system: LOX IMVI
[31] = system: OVCAR-4
[32] = system: SNB-19
[33] = system: SK-MEL-28
[34] = system: M19-MEL
[35] = system: DMS-273
[36] = system: A549
[37] = system: MOLT-4
[38] = system: RPMI-8226
[39] = system: OVCAR-8
[40] = system: HOP-18
[41] = system: RXF 393
[42] = system: NCI-H460
[43] = system: SNB-78
[44] = system: SF-268
[45] = system: IGROV-1
[46] = system: TK-10
[47] = system: ACHN
[48] = system: UO-31
[49] = system: HOP-92
[50] = system: OVCAR-5
[51] = system: A498
[52] = system: EKVX
[53] = system: SK-MEL-2
[54] = system: Malme-3M
[55] = system: HCT-15
[56] = system: UACC-257
[57] = system: CAKI-1
[58] = system: NCI/ADR-RES
[59] = system: MCF7

## COP1(=O)CC2C(Cl)(Cl)C2(C)C1 (stereo not given)
[1]
  GI50: > 100 µM (inactive)
[2]
  GI50: > 100 µM (inactive)
[3]
  GI50: > 100 µM (inactive)
[4]
  GI50: > 100 µM (inactive)
[5]
  GI50: > 100 µM (inactive)
[6]
  GI50: > 100 µM (inactive)
[7]
  GI50: > 100 µM (inactive)
[8]
  GI50: > 100 µM (inactive)
[9]
  GI50: > 100 µM (inactive)
[10]
  GI50: > 100 µM (inactive)
[11]
  GI50: > 100 µM (inactive)
[12]
  GI50: > 100 µM (inactive)
[13]
  GI50: > 100 µM (inactive)
[14]
  GI50: > 100 µM (inactive)
[15]
  GI50: > 100 µM (inactive)
[16]
  GI50: > 100 µM (inactive)
[17]
  GI50: > 100 µM (inactive)
[18]
  GI50: > 100 µM (inactive)
[19]
  GI50: > 100 µM (inactive)
[20]
  GI50: > 100 µM (inactive)
[21]
  GI50: > 100 µM (inactive)
[22]
  GI50: > 100 µM (inactive)
[23]
  GI50: > 100 µM (inactive)
[24]
  GI50: > 100 µM (inactive)
[25]
  GI50: > 100 µM (inactive)
[26]
  GI50: > 100 µM (inactive)
[27]
  GI50: > 100 µM (inactive)
[28]
  GI50: > 100 µM (inactive)
[29]
  GI50: > 100 µM (inactive)
[30]
  GI50: > 100 µM (inactive)
[31]
  GI50: > 100 µM (inactive)
[32]
  GI50: > 100 µM (inactive)
[33]
  GI50: > 100 µM (inactive)
[34]
  GI50: > 100 µM (inactive)
[35]
  GI50: > 100 µM (inactive)
[36]
  GI50: > 100 µM (inactive)
[37]
  GI50: > 100 µM (inactive)
[38]
  GI50: > 100 µM (inactive)
[39]
  GI50: > 100 µM (inactive)
[40]
  GI50: > 100 µM (inactive)
[41]
  GI50: > 100 µM (inactive)
[42]
  GI50: > 100 µM (inactive)
[43]
  GI50: > 100 µM (inactive)
[44]
  GI50: > 100 µM (inactive)
[45]
  GI50: > 100 µM (inactive)
[46]
  GI50: > 100 µM (inactive)

## NC(=O)c1ccccc1NC(=O)C(=O)C(C(=O)c1ccc2ccccc2c1)C1OC(=O)c2ccccc21 (stereo not given)
[47]
  GI50: > 100 µM (inactive)
[1]
  GI50: 15.9 µM (inactive)
[2]
  GI50: 10.2 µM (inactive)
[3]
  GI50: 10.3 µM (inactive)
[4]
  GI50: 14 µM (inactive)
[5]
  GI50: 2.85 µM (inactive)
[7]
  GI50: 2.59 µM (inactive)
[8]
  GI50: 8.24 µM (inactive)
[9]
  GI50: 4.6 µM (inactive)
[48]
  GI50: 13.2 µM (inactive)
[10]
  GI50: 9.71 µM (inactive)
[11]
  GI50: 9.66 µM (inactive)
[12]
  GI50: 18.9 µM (inactive)
[13]
  GI50: 14.3 µM (inactive)
[14]
  GI50: 7.1 µM (inactive)
[15]
  GI50: 27.8 µM (inactive)
[49]
  GI50: 6.79 µM (inactive)
[18]
  GI50: 11.7 µM (inactive)
[50]
  GI50: 24 µM (inactive)
[19]
  GI50: 10.4 µM (inactive)
[20]
  GI50: 8.17 µM (inactive)
[21]
  GI50: 14.6 µM (inactive)
[22]
  GI50: 11.7 µM (inactive)
[23]
  GI50: 6.25 µM (inactive)
[24]
  GI50: 12 µM (inactive)
[51]
  GI50: > 100 µM (inactive)
[25]
  GI50: 8.15 µM (inactive)
[26]
  GI50: 28.3 µM (inactive)
[52]
  GI50: 26.5 µM (inactive)
[27]
  GI50: 16.5 µM (inactive)
[29]
  GI50: 4.86 µM (inactive)
[30]
  GI50: 11.3 µM (inactive)
[31]
  GI50: 11.6 µM (inactive)
[32]
  GI50: 4.04 µM (inactive)
[33]
  GI50: 7.23 µM (inactive)
[34]
  GI50: 11.1 µM (inactive)
[35]
  GI50: 12.5 µM (inactive)
[36]
  GI50: 16.3 µM (inactive)
[37]
  GI50: 3.49 µM (inactive)
[38]
  GI50: 8.91 µM (inactive)
[39]
  GI50: 7.66 µM (inactive)
[40]
  GI50: 1.34 µM (inactive)
[41]
  GI50: 2.09 µM (inactive)
[42]
  GI50: > 100 µM (inactive)
[43]
  GI50: 10.5 µM (inactive)
[53]
  GI50: 14.8 µM (inactive)
[44]
  GI50: 4.48 µM (inactive)
[45]
  GI50: 14.8 µM (inactive)
[54]
  GI50: 10.4 µM (inactive)
[55]
  GI50: 16.7 µM
[46]
  GI50: 22.6 µM (inactive)
[56]
  GI50: 13.3 µM (inactive)
[57]
  GI50: 7.67 µM (inactive)

## O/N=C1/CCCC/C1=C\c1ccc(Cl)c(Cl)c1
[47]
  GI50: 28.7 µM (inactive)
[1]
  GI50: 18.4 µM (inactive)
[2]
  GI50: 49 µM (inactive)
[3]
  GI50: 18.9 µM (inactive)
[6]
  GI50: 19.3 µM (inactive)
[7]
  GI50: 19.8 µM (inactive)
[8]
  GI50: 46.6 µM (inactive)
[9]
  GI50: 19 µM (inactive)
[48]
  GI50: 20.8 µM (inactive)
[10]
  GI50: 17.2 µM (inactive)
[11]
  GI50: 28.8 µM (inactive)
[13]
  GI50: 28.2 µM (inactive)
[14]
  GI50: 29 µM (inactive)
[15]
  GI50: 18.8 µM (inactive)
[16]
  GI50: 32.9 µM (inactive)
[17]
  GI50: 40.5 µM (inactive)
[18]
  GI50: 21.8 µM (inactive)
[19]
  GI50: 29.7 µM (inactive)
[20]
  GI50: 19.7 µM (inactive)
[21]
  GI50: 35.3 µM (inactive)
[22]
  GI50: 19.7 µM (inactive)
[23]
  GI50: 29.9 µM (inactive)
[24]
  GI50: 16.1 µM (inactive)
[51]
  GI50: 29.6 µM (inactive)
[25]
  GI50: 20.7 µM (inactive)
[26]
  GI50: 20.5 µM (inactive)
[52]
  GI50: 23.9 µM (inactive)
[27]
  GI50: 27.8 µM (inactive)
[28]
  GI50: 3.8 µM (inactive)
[29]
  GI50: 17.3 µM (inactive)
[30]
  GI50: 21 µM (inactive)
[31]
  GI50: 21.5 µM (inactive)
[32]
  GI50: 27.9 µM (inactive)
[33]
  GI50: 34.2 µM (inactive)
[34]
  GI50: 37.3 µM (inactive)
[35]
  GI50: 24.7 µM (inactive)
[36]
  GI50: 30.1 µM (inactive)
[37]
  GI50: 15.2 µM (inactive)
[39]
  GI50: 33.7 µM (inactive)
[40]
  GI50: 22.1 µM (inactive)
[42]
  GI50: 23.9 µM (inactive)
[43]
  GI50: 22.9 µM (inactive)
[44]
  GI50: 25.1 µM (inactive)
[45]
  GI50: 38 µM (inactive)
[55]
  GI50: 28.4 µM
[46]
  GI50: 34.8 µM (inactive)
[57]
  GI50: 32.5 µM (inactive)

## CC(C)=CC(=O)OC1C2C(C)=CC(O)C(O)C2(C)C2C3(O)OCC24C(CC(=O)OC14)C(C)C3O (stereo not given)
[1]
  GI50: 0.386 µM (active)
[2]
  GI50: 0.168 µM (active)
[58]
  GI50: 17.5 µM (inactive)
[3]
  GI50: 0.0462 µM (active)
[4]
  GI50: 0.0298 µM (active)
[5]
  GI50: 0.106 µM (active)
[6]
  GI50: 0.0162 µM (active)
[7]
  GI50: 0.122 µM (active)
[8]
  GI50: 0.162 µM (active)
[9]
  GI50: 0.0466 µM (active)
[48]
  GI50: 2.32 µM (inactive)
[10]
  GI50: 0.0361 µM (active)
[11]
  GI50: 0.0611 µM (active)
[12]
  GI50: 0.0791 µM (active)
[14]
  GI50: 0.101 µM (active)
[15]
  GI50: 0.137 µM (active)
[16]
  GI50: 0.0716 µM (active)
[17]
  GI50: 0.28 µM (active)
[49]
  GI50: 0.0552 µM (active)
[18]
  GI50: 0.0339 µM (active)
[50]
  GI50: 0.802 µM (active)
[19]
  GI50: 0.0649 µM (active)
[21]
  GI50: 3.13 µM (inactive)
[22]
  GI50: 0.778 µM (active)
[24]
  GI50: 0.0252 µM (active)
[51]
  GI50: 1.51 µM (inactive)
[25]
  GI50: 0.111 µM (active)
[26]
  GI50: 0.354 µM (active)
[52]
  GI50: 0.143 µM (active)
[27]
  GI50: 0.0378 µM (active)
[28]
  GI50: 0.0251 µM (active)
[59]
  GI50: 0.0269 µM (active)
[29]
  GI50: 0.0519 µM (active)
[30]
  GI50: 0.0371 µM (active)
[31]
  GI50: 0.0647 µM (active)
[32]
  GI50: 0.14 µM (active)
[33]
  GI50: 0.0362 µM (active)
[34]
  GI50: 0.034 µM (active)
[35]
  GI50: 0.0264 µM (active)
[36]
  GI50: 1.16 µM (inactive)
[37]
  GI50: 0.0225 µM (active)
[38]
  GI50: 0.0346 µM (active)
[39]
  GI50: 0.166 µM (active)
[40]
  GI50: 1.11 µM (active)
[41]
  GI50: 0.183 µM (active)
[42]
  GI50: 0.0596 µM (active)
[43]
  GI50: 0.272 µM (active)
[53]
  GI50: 0.173 µM (active)
[44]
  GI50: 0.182 µM (active)
[45]
  GI50: 0.0581 µM (active)
[54]
  GI50: 0.0286 µM (active)
[55]
  GI50: 0.476 µM
[56]
  GI50: 0.104 µM (active)
[57]
  GI50: 2.93 µM (inactive)
